Assay results published in ChEMBL document CHEMBL4251670, “Cyclopiamines C and D: Epoxide Spiroindolinone Alkaloids from Penicillium sp. CML 3020” (J Nat Prod, 2018).

What was measured:
Aspergillus fumigatus = experiment: Antifungal activity against Aspergillus fumigatus ATCC 46645 measured after overnight incubation; format: functional
MCF7 = experiment: Cytotoxicity against human MCF7 cells after 72 hrs by CellTiter-Glo luminescent assay; format: functional, cell-based; conditions: MCF7, 72 h
[1] = Cytotoxicity against human MEC1 cells after 72 hrs by CellTiter-Glo luminescent assay; format: functional, cell-based; conditions: MEC1, 72 h
Acinetobacter baumannii = experiment: Antibacterial activity against Acinetobacter baumannii MB5973 measured after overnight incubation; format: functional
Klebsiella pneumoniae = experiment: Antibacterial activity against Klebsiella pneumoniae ATCC 700603 measured after overnight incubation; format: functional
SW480 = experiment: Cytotoxicity against human SW480 cells after 72 hrs by CellTiter-Glo luminescent assay; format: functional, cell-based; conditions: SW480, 72 h
[2] = Cytotoxicity against human NCH421K cells after 72 hrs by CellTiter-Glo luminescent assay; format: functional, cell-based
MDA-MB-231 = experiment: Cytotoxicity against human MDA-MB-231 cells after 72 hrs by CellTiter-Glo luminescent assay; format: functional, cell-based; conditions: MDA-MB-231, 72 h
EVSA-T = experiment: Cytotoxicity against human EVSA-T cells after 72 hrs by CellTiter-Glo luminescent assay; format: functional, cell-based
Pseudomonas aeruginosa = experiment: Antibacterial activity against Pseudomonas aeruginosa MB5919 measured after overnight incubation; format: functional
Staphylococcus aureus = experiment: Antibacterial activity against methicillin-resistant Staphylococcus aureus MB5393 measured after overnight incubation; format: functional
Candida albicans = experiment: Antifungal activity against Candida albicans MY1055 measured after overnight incubation; format: functional
Escherichia coli = experiment: Antibacterial activity against Escherichia coli MB2884 measured after overnight incubation; format: functional

## CC1(C)[C@@H](O)C(=O)c2c(O)ccc3c2N1C(=O)[C@@]31C[C@]2([N+](=O)[O-])CN3C[C@@H]4O[C@@H]4[C@@H]3C[C@H]2C1(C)C
Aspergillus fumigatus
  MIC: > 64 µg/mL
MCF7
  IC50: > 180 µM
[1]
  IC50: > 180 µM
Acinetobacter baumannii
  MIC: > 64 µg/mL
Klebsiella pneumoniae
  MIC: > 64 µg/mL
SW480
  IC50: > 180 µM
[2]
  IC50: > 180 µM
MDA-MB-231
  IC50: > 180 µM
EVSA-T
  IC50: > 180 µM
Pseudomonas aeruginosa
  MIC: > 64 µg/mL
Staphylococcus aureus
  MIC: > 64 µg/mL
Candida albicans
  MIC: > 64 µg/mL
Escherichia coli
  MIC: > 64 µg/mL

## COc1ccc2c3c1C(=O)[C@H](O)C(C)(C)N3C(=O)[C@@]21C[C@]2([N+](=O)[O-])CN3C[C@@H]4O[C@@H]4[C@@H]3C[C@H]2C1(C)C
Aspergillus fumigatus
  MIC: > 64 µg/mL
MCF7
  IC50: > 180 µM
[1]
  IC50: > 180 µM
Acinetobacter baumannii
  MIC: > 64 µg/mL
Klebsiella pneumoniae
  MIC: > 64 µg/mL
SW480
  IC50: > 180 µM
[2]
  IC50: > 180 µM
MDA-MB-231
  IC50: > 180 µM
EVSA-T
  IC50: > 180 µM
Pseudomonas aeruginosa
  MIC: > 64 µg/mL
Staphylococcus aureus
  MIC: > 64 µg/mL
Candida albicans
  MIC: > 64 µg/mL
Escherichia coli
  MIC: > 64 µg/mL
